Usually MIC stands for the lowest concentration found to suppress growth. Lower therefore signals greater potency.

Data on one compound can be found in patent US4833134A, “Cephem compounds” (Takeda Chemical Industries, Ltd., priority 1986, dated 1989).

Structures can show the parent of a compound that is named as a salt.

One assay deals with Escherichia coli T7. Description: MIC (minimum inhibitory concentration), agar dilution method. To be noted: trypticase soy agar, ca. 10^8 CFU/ml, 37° C., 18 hours. Format: cell-based. As to the method:
(§1) The MIC value of the test compound was determined by agar dilution method. More specifically, 1.0 ml of an aqueous solution of the test compound diluted serially was poured into a petri dish, to which were added 9.0 ml of trypticase soy agar, followed by mixing. On the mixed agar plate was spread a suspension of the test microorganism (ca. 10^8 CFU/ml), which was incubated at 37° C. for 18 hours. The lowest concentration of the test compound completely inhibiting the growth of the test microorganism was expressed by MIC (minimum inhibitory concentration).
A general note: In agar dilution the substance is mixed into plates at graded concentrations.

Assay [1] relates to Staphylococcus aureus 1840. The assay is described as above. The following applies: trypticase soy agar, ca. 10^8 CFU/ml, 37° C., 18 hours. Format: cell-based. The protocol:
as §1
(1) Staphylococcus aureus 1840

With `CCON=C(C(=O)NC1C(=O)N2C(C(=O)[O-])=C(C[n+]3ccc(SCCCN)cc3)CSC12)c1csc(N)n1` (stereo not drawn) [Example 2, 7β-[2-(2-aminothiazol-4-yl)-(Z)-2-ethoxyiminoacetamido]-3-{[4-(3-aminopropylthio)-1-pyridinium]methyl}-3-cephem-4-carboxylate hydrochloride], the MIC against Escherichia coli T7 came to 0.2 µg/mL; in assay [1] it was 0.78 µg/mL.
